pIC50: −log10 of the molar value. Starred links: 1 amine or outer side, 2 acyl side, 3 side chain; linkers in the order of their positions; H or OH if unused. Non-standard residues stand in square brackets, D forms with d. Residues, ends and D or L forms follow the SMILES beside them. *: point of attachment. X8 = C#CC(=O)c1cccc(N([C@@H](Cc2ccc(F)cc2)C(=O)[*:2])[*:1])c1; Phe(4-guanidino) = N=C(N)Nc1ccc(C[C@H](N)C(=O)O)cc1; Phe(4-F) = N[C@@H](Cc1ccc(F)cc1)C(=O)O; X5 = O=C(c1cc2ccccc2[nH]1)*; X2 = O=S(=O)(c1cccs1)* Where only a bound is given, the exact number is not on record here.

This assay deals with T1, Proteinase-activated receptor 1 (Homo sapiens, UniProt P25116).
T1 sequence (P25116 whole entry): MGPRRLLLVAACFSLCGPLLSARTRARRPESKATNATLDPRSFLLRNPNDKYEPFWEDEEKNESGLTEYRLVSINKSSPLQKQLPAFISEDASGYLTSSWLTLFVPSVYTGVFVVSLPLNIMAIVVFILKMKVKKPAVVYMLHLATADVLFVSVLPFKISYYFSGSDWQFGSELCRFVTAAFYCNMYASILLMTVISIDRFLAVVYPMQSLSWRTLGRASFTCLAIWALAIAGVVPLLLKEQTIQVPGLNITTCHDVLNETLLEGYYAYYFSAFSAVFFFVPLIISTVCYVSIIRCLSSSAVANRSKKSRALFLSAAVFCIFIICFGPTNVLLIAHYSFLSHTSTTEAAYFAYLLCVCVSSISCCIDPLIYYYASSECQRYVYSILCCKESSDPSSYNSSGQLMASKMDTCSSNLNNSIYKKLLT
`CC(=O)N(C(=O)/C=C/c1ccccc1)[C@@H](Cc1ccc(F)cc1)C(=O)N[C@@H](CCCCN=C(N)N)C(=O)N[C@@H](CC(C)C)C(=O)N[C@@H](CCCN=C(N)N)C(N)=O` showed a pIC50 of 7.92. As to `CC(=O)N(C(=O)/C=C/c1ccccc1)[C@@H](Cc1ccc(F)cc1)C(=O)N[C@@H](Cc1ccc(Cl)cc1)C(=O)N[C@@H](CC(C)C)C(=O)N[C@@H](CCCN=C(N)N)C(N)=O`, the pIC50 is 5.33. `CC(=O)N(CC(=O)N[C@@H](Cc1ccc(NC(=N)N)cc1)C(=O)N[C@@H](CC(C)C)C(=O)N[C@@H](CCCN=C(N)N)C(N)=O)C(=O)/C=C/c1ccccc1`: the pIC50 was under 4.52. For `CC(=O)N(c1ccccc1F)[C@@H](Cc1ccc(F)cc1)C(=O)N[C@@H](Cc1ccc(NC(=N)N)cc1)C(=O)N[C@@H](CC(C)C)C(=O)N[C@@H](CCCN=C(N)N)C(N)=O`, the pIC50 is 6.25. Regarding `CC(C)C[C@H](NC(=O)[C@H](Cc1ccc(NC(=N)N)cc1)NC(=O)[C@H](Cc1ccc(F)cc1)NC(=O)c1cc2ccccc2[nH]1)C(=O)N[C@@H](CCCN=C(N)N)C(N)=O` (X5-[Phe(4-F)][Phe(4-guanidino)]LR-NH2), the pIC50 was 7.62.

Consider `CC(=O)N(C(=O)/C=C/c1ccc(N)cc1)[C@@H](Cc1ccc(F)cc1)C(=O)N[C@@H](Cc1ccc(NC(=N)N)cc1)C(=O)N[C@@H](CC(C)C)C(=O)N[C@@H](CCCN=C(N)N)C(N)=O`, for which the negative logarithm of the IC50 (pIC50) is 7.21.

On to `CC(C)C[C@H](NC(=O)[C@H](Cc1ccc(NC(=N)N)cc1)NC(=O)[C@H](Cc1ccc(F)cc1)NS(=O)(=O)c1cccs1)C(=O)N[C@@H](CCCN=C(N)N)C(N)=O` (X2-[Phe(4-F)][Phe(4-guanidino)]LR-NH2), for which the pIC50 is 5.05. The compound `CCCC(=O)c1ccc(N(C(C)=O)[C@@H](Cc2ccc(F)cc2)C(=O)N[C@@H](Cc2ccc(NC(=N)N)cc2)C(=O)N[C@@H](CC(C)C)C(=O)N[C@@H](CCCN=C(N)N)C(N)=O)cc1` showed a pIC50 of 5.90.

Regarding `CC(=O)N(c1c[nH]c2ccccc12)[C@@H](Cc1ccc(F)cc1)C(=O)N[C@@H](Cc1ccc(NC(=N)N)cc1)C(=O)N[C@@H](CC(C)C)C(=O)N[C@@H](CCCN=C(N)N)C(N)=O`, the pIC50 was 6.30. Compared with the last compound, the pIC50 is 0.40 log units higher. The value for `CC(=O)N(C(=O)/C=C/c1ccccc1)[C@@H](Cc1ccc(F)cc1)C(=O)N[C@@H](Cc1ccc(NC(=N)N)cc1)C(=O)N[C@@H](CC(C)C)C(=O)N[C@@H](CCCN=C(N)N)C(N)=O` was 8.11. The value for `CC(=O)N(C(=O)/C=C/c1cccc(Cl)c1)[C@@H](Cc1ccc(F)cc1)C(=O)N[C@@H](Cc1ccc(NC(=N)N)cc1)C(=O)N[C@@H](CC(C)C)C(=O)N[C@@H](CCCN=C(N)N)C(N)=O` was 7.39; that for `CC(=O)N(Oc1cccs1)[C@@H](Cc1ccc(F)cc1)C(=O)N[C@@H](Cc1ccc(NC(=N)N)cc1)C(=O)N[C@@H](CC(C)C)C(=O)N[C@@H](CCCN=C(N)N)C(N)=O` was 6.66. On to `CC(=O)N(C(=O)/C=C/c1ccccc1)[C@@H](Cc1ccccc1)C(=O)N[C@@H](Cc1ccc(NC(=N)N)cc1)C(=O)N[C@@H](CC(C)C)C(=O)N[C@@H](CCCN=C(N)N)C(N)=O`, for which the pIC50 was 7.62. Against the preceding compound, the pIC50 is 0.96 log units higher. Regarding `CC(=O)N(c1cccnc1)[C@@H](Cc1ccc(F)cc1)C(=O)N[C@@H](Cc1ccc(NC(=N)N)cc1)C(=O)N[C@@H](CC(C)C)C(=O)N[C@@H](CCCN=C(N)N)C(N)=O`, the pIC50 is 6.02. Compared with the last compound, the pIC50 is 1.60 log units lower. `CC(=O)N(Oc1c[nH]c2ccccc12)[C@@H](Cc1ccc(F)cc1)C(=O)N[C@@H](Cc1ccc(NC(=N)N)cc1)C(=O)N[C@@H](CC(C)C)C(=O)N[C@@H](CCCN=C(N)N)C(N)=O`: the negative logarithm of the IC50 (pIC50) is 6.89. This pIC50 lies 0.87 log units higher than the previous one.

The compound `CC(=O)N(C(=O)/C=C/c1ccccc1)[C@@H](Cc1ccc(F)cc1)C(=O)N[C@@H](Cc1ccccc1)C(=O)N[C@@H](CC(C)C)C(=O)N[C@@H](CCCN=C(N)N)C(N)=O` gave a pIC50 of 5.95. `CC(=O)N(C(=O)/C=C/c1ccccc1)[C@@H](Cc1ccc(F)cc1)C(=O)N[C@@H](Cc1ccc(N)cc1)C(=O)N[C@@H](CC(C)C)C(=O)N[C@@H](CCCN=C(N)N)C(N)=O` showed a pIC50 of 6.43. Compared with the last compound, the pIC50 is 0.48 log units higher.

Compound `CC(=O)N(C(=O)/C=C/c1ccccc1)[C@@H](Cc1ccc(F)cc1)C(=O)N[C@@H](Cc1ccc(NC(=N)N)cc1)C(N)=O` gave a pIC50 of 6.11. The value for `CC(=O)N(C(=O)/C=C/c1ccccc1)[C@@H](Cc1ccc(F)cc1)C(=O)N[C@@H](Cc1ccc(NC(=N)N)cc1)C(=O)N[C@@H](CC(C)C)C(=O)N[C@@H](CCCN)C(N)=O` was 7.77; that for `CC(=O)N(c1cccc(Cl)c1)[C@@H](Cc1ccc(F)cc1)C(=O)N[C@@H](Cc1ccc(NC(=N)N)cc1)C(=O)N[C@@H](CC(C)C)C(=O)N[C@@H](CCCN=C(N)N)C(N)=O` was 6.96. For the compound `CC(=O)N(C(=O)/C=C/c1ccccc1)[C@@H](Cc1ccc(F)cc1)C(=O)N[C@@H](Cc1cccnc1)C(=O)N[C@@H](CC(C)C)C(=O)N[C@@H](CCCN=C(N)N)C(N)=O`, the negative logarithm of the IC50 (pIC50) is 6.47. For `CC(=O)N(C(=O)/C=C/c1ccccc1)[C@@H](Cc1ccc(F)cc1)C(=O)N[C@@H](CCc1ccccc1)C(=O)N[C@@H](CC(C)C)C(=O)N[C@@H](CCCN=C(N)N)C(N)=O` the value was 6.20; for `CC(=O)N(c1cccc(F)c1)[C@@H](Cc1ccc(F)cc1)C(=O)N[C@@H](Cc1ccc(NC(=N)N)cc1)C(=O)N[C@@H](CC(C)C)C(=O)N[C@@H](CCCN=C(N)N)C(N)=O`, 6.80. Consider `CC(=O)N(C(=O)/C=C/c1ccc(C)cc1)[C@@H](Cc1ccc(F)cc1)C(=O)N[C@@H](Cc1ccc(NC(=N)N)cc1)C(=O)N[C@@H](CC(C)C)C(=O)N[C@@H](CCCN=C(N)N)C(N)=O` (stereo in doubt; 45), for which the pIC50 is 7.47. The value for `CC(=O)N(C(=O)/C=C/c1ccccc1)[C@@H](Cc1ccc(F)cc1)C(=O)N[C@@H](Cc1ccc(NC(=N)N)cc1)C(=O)N[C@@H](CC(C)C)C(=O)N[C@@H](CCCN=C(N)N)C(=O)N[C@@H](CCCN)C(=O)CC(N)=O` was 7.78. The value for `CC(=O)N(C(=O)/C=C/c1ccccc1)[C@@H](Cc1ccc(F)cc1)C(=O)N[C@@H](CCCCN=C(N(C)C)N(C)C)C(=O)N[C@@H](CC(C)C)C(=O)N[C@@H](CCCN=C(N)N)C(N)=O` was 6.89; that for `C#CC(=O)c1cccc(N(C(C)=O)[C@@H](Cc2ccc(F)cc2)C(=O)N[C@@H](Cc2ccc(NC(=N)N)cc2)C(=O)N[C@@H](CC(C)C)C(=O)N[C@@H](CCCN=C(N)N)C(=O)N[C@@H](CCCN=C(N)N)C(N)=O)c1` (Ac-[X8][Phe(4-guanidino)]LRR-NH2) was 8.40; that for `CC(=O)N(C(=O)/C=C/c1ccccc1)[C@@H](Cc1ccc(F)cc1)C(=O)N[C@@H](CCCN=C(N)N)C(=O)N[C@@H](CC(C)C)C(=O)N[C@@H](CCCN=C(N)N)C(N)=O` was 7.55. For `CC(=O)N(C(=O)Cc1cccc2ccccc12)[C@@H](Cc1ccc(F)cc1)C(=O)N[C@@H](Cc1ccc(NC(=N)N)cc1)C(=O)N[C@@H](CC(C)C)C(=O)N[C@@H](CCCN=C(N)N)C(N)=O` the value was 5.79; for `CCC(=O)c1cccc(N(C(C)=O)[C@@H](Cc2ccc(F)cc2)C(=O)N[C@@H](Cc2ccc(NC(=N)N)cc2)C(=O)N[C@@H](CC(C)C)C(=O)N[C@@H](CCCN=C(N)N)C(N)=O)c1`, 7.38.

Compound `CC(=O)N(C(=O)/C=C/c1ccccc1)[C@@H](Cc1ccc(F)cc1)C(=O)N[C@@H](Cc1ccc(NC(=N)N)cc1)C(=O)N[C@@H](CCCN)C(N)=O` gave a pIC50 of 6.06. For `CC(=O)N(C(=O)/C=C/c1ccccc1)[C@@H](Cc1ccc(F)cc1)C(=O)N[C@@H](CCN=C(N(C)C)N(C)C)C(=O)N[C@@H](CC(C)C)C(=O)N[C@@H](CCCN=C(N)N)C(N)=O` the value was 6.47.

(Values after ChEMBL document CHEMBL1129588, “Development of potent thrombin receptor antagonist peptides” (J Med Chem, 1996).)
